Test results: patent US20080242688A1, “Method 741” (ASTRAZENECA AB, priority 2007, published 2008)
Several values for one entry are separate records, joined by “and”; a condition that tells them apart may be missing. Identical values can stand only once.

How the values were obtained:
Multiple dose PK/TK, rat = type: in vivo
Description: This section provides a summary of the pharmacokinetic and metabolism properties of AZD0328 derived from in vivo studies. […] The derived PK/TK parameters from these studies are presented in Table 4 for single dose studies (DMR4, 0619LR, 20030191PCR, DMO16, DMB10, DMW12, 50190, 0190DD and 03.330/1), and are presented in Table 5 multiple dose PK/TK studies (DMR4, 0612AR, DMB15, 50190, 0190DD and 0295AD).

mice = assay: Novel Object Recognition (NOR); type: in vivo, mouse; conditions: 0.00178 mg/kg sc
Description: We have now discovered that much lower doses of AZD0328 that provide much lower plasma concentrations, can improve performance of cognitive tasks in mice, rats, and monkeys. AZD0328 at low doses increased novel object recognition in mice. In this procedure, mice were habituated to a chamber in which they were then allowed to “sample” two objects before being removed from the chamber. After a delay during which one of the objects was replaced with a novel object, the mice were returned to the chamber for testing. If the delay was brief, mice spent more time exploring the novel object than the familiar object, which is thought to indicate that the mice “recognize” […], a measure of episodic memory.
AZD0328 increased novel object recognition in mice (Table 2). In this procedure, mice were habituated to a chamber in which they were then allowed to “sample” two objects before being removed from the chamber. After a delay during which one of the objects was replaced with a novel object, the mice were returned to the chamber for testing. If the delay was brief, mice spent more time exploring the novel object than the familiar object, which is thought to indicate that the mice “recognize” that the novel object is novel.

5-HT3A = target: T1, 5-HT3A (Homo sapiens, UniProt P46098); assay: Functional assays at recombinant human receptors; type: biochemical; conditions: functional potency, recombinant human receptors in vitro
T1 construct: expressed in transfected cells
T1 sequence (P46098 24-478): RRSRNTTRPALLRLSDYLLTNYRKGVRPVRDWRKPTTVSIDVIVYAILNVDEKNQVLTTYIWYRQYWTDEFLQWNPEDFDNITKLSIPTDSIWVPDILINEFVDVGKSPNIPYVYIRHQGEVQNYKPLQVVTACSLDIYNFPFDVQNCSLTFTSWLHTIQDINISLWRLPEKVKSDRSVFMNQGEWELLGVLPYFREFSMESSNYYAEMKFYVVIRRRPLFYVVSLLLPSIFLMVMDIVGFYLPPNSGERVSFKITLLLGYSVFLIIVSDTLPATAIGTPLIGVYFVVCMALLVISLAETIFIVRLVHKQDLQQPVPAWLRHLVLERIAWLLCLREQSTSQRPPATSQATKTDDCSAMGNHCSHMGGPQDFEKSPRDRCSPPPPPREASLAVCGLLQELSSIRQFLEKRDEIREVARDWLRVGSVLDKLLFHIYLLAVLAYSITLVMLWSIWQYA

human hepatocytes = assay: Human hepatocyte incubations; type: in vitro ADME; conditions: four separate batches of human hepatocytes
Experimental: Pyridinyl methylation of AZD0328 was a unique polar metabolite (M2) observed in dog hepatocytes. Other minor hydroxylation/oxidation and glucuronide conjugation products were detected in monkey, dog, rat, and guinea pig hepatocyte incubations and mini-pig hepatic microsome incubations. […] Analysis of plasma and urine samples from either orally or iv dosed rats confirmed N-oxide product of AZD0328 was a main product in the excretion and circulation. The percentage of AZD0328 N-oxide in the plasma from male rats was much higher than from females.

[1] = both sexes, rat, in vivo, po, 2.16 mg/kg, rat 1F+1M, DMR4, 2.16 mg/kg (10 μmol/kg), day 1
[2] = both sexes, rat, in vivo, po, 2.16 mg/kg, rat 1F+1M, DMR4, 2.16 mg/kg (10 μmol/kg), day 7
[3] = female, rat, in vivo, po, 2.16 mg/kg, rat 4F, 0612AR, 2.16 mg/kg (10 μmol/kg), day 1
[4] = female, rat, in vivo, po, 2.16 mg/kg, rat 4F, 0612AR, 2.16 mg/kg (10 μmol/kg), day 30
[5] = female, rat, in vivo, po, 15.1 mg/kg, rat 4F, 0612AR, 15.1 mg/kg (70 μmol/kg), day 1
[6] = female, rat, in vivo, po, 15.1 mg/kg, rat 4F, 0612AR, 15.1 mg/kg (70 μmol/kg), day 30
[7] = female, rat, in vivo, po, 64.9 mg/kg, rat 4F, 0612AR, 64.9 mg/kg (300 μmol/kg), day 1
[8] = female, rat, in vivo, po, 64.9 mg/kg, rat 4F, 0612AR, 64.9 mg/kg (300 μmol/kg), day 30
[9] = male, rat, in vivo, po, 2.16 mg/kg, rat 4M, 062AR, 2.16 mg/kg (10 μmol/kg), day 30
[10] = male, rat, in vivo, po, 2.16 mg/kg, rat 4M, 0612AR, 2.16 mg/kg (10 μmol/kg), day 1
[11] = male, rat, in vivo, po, 15.1 mg/kg, rat 4M, 0612AR, 15.1 mg/kg (70 μmol/kg), day 1
[12] = male, rat, in vivo, po, 15.1 mg/kg, rat 4M, 0612AR, 15.1 mg/kg (70 μmol/kg), day 30
[13] = male, rat, in vivo, po, 64.9 mg/kg, rat 4M, 0612AR, 64.9 mg/kg (300 μmol/kg), day 1
[14] = male, rat, in vivo, po, 64.9 mg/kg, rat 4M, 0612AR, 64.9 mg/kg (300 μmol/kg), day 30

c1cnc2c(c1)C[C@@]1(CN3CCC1CC3)O2 [AZD0328, (R)-Spiro[1-azabicyclo[2.2.2]octane-3,2′(3′H)-furo[2,3-b]pyridine]]
AUC (Multiple dose PK/TK, rat; [1]): 699 ng·h/mL to 861 ng·h/mL and 3.23 µM·h to 3.98 µM·h
Cmax (Multiple dose PK/TK, rat; [1]): 251 ng/mL to 344 ng/mL and 1.16 µM to 1.59 µM
Tmax (Multiple dose PK/TK, rat; [1]): 0.5 to 1 h
AUC (Multiple dose PK/TK, rat; [2]): 2.77 µM·h to 3.96 µM·h and 599 ng·h/mL to 857 ng·h/mL
Cmax (Multiple dose PK/TK, rat; [2]): 212 to 324 ng/mL
Cmax at 7 day (Multiple dose PK/TK, rat; [2]): 981 to 1500 nM
Tmax (Multiple dose PK/TK, rat; [2]): 0.5 h
AUC (Multiple dose PK/TK, rat; [3]): 916 ng·h/mL and 7.25 µM·h
Cmax at 1 day (Multiple dose PK/TK, rat; [3]): 236 ng/mL and 1.87 µM
Tmax at 1 day (Multiple dose PK/TK, rat; [3]): 1 h
AUC (Multiple dose PK/TK, rat; [4]): 858 ng·h/mL and 6.79 µM·h
Cmax at 30 day (Multiple dose PK/TK, rat; [4]): 220 ng/mL and 1.74 µM
Tmax at 30 day (Multiple dose PK/TK, rat; [4]): 1 h
AUC (Multiple dose PK/TK, rat; [5]): 8120 ng·h/mL and 64.3 µM·h
Cmax at 1 day (Multiple dose PK/TK, rat; [5]): 984 ng/mL and 7.79 µM
Tmax at 1 day (Multiple dose PK/TK, rat; [5]): 1 h
AUC (Multiple dose PK/TK, rat; [6]): 9600 ng·h/mL and 76 µM·h
Cmax at 30 day (Multiple dose PK/TK, rat; [6]): 1420 ng/mL and 11.2 µM
Tmax at 30 day (Multiple dose PK/TK, rat; [6]): 1 h
AUC (Multiple dose PK/TK, rat; [7]): 40400 ng·h/mL and 320 µM·h
Cmax (Multiple dose PK/TK, rat; [7]): 2480 ng/mL and 19.6 µM
Tmax (Multiple dose PK/TK, rat; [7]): 1 to 3 h
AUC (Multiple dose PK/TK, rat; [8]): 42100 ng·h/mL and 333 µM·h
Cmax (Multiple dose PK/TK, rat; [8]): 2930 ng/mL and 23.2 µM
Tmax (Multiple dose PK/TK, rat; [8]): 1 h
AUC (Multiple dose PK/TK, rat; [9]): 412 ng·h/mL and 3.26 µM·h
Cmax at 30 day (Multiple dose PK/TK, rat; [9]): 154 ng/mL and 1.22 µM
Tmax at 30 day (Multiple dose PK/TK, rat; [9]): 1 h
AUC (Multiple dose PK/TK, rat; [10]): 528 ng·h/mL and 4.18 µM·h
Cmax at 1 day (Multiple dose PK/TK, rat; [10]): 189 ng/mL and 1.5 µM
Tmax at 1 day (Multiple dose PK/TK, rat; [10]): 1 h
AUC (Multiple dose PK/TK, rat; [11]): 4230 ng·h/mL and 33.5 µM·h
Cmax at 1 day (Multiple dose PK/TK, rat; [11]): 769 ng/mL and 6.09 µM
Tmax at 1 day (Multiple dose PK/TK, rat; [11]): 1 to 3 h
AUC (Multiple dose PK/TK, rat; [12]): 5630 ng·h/mL and 44.6 µM·h
Cmax at 30 day (Multiple dose PK/TK, rat; [12]): 1160 ng/mL and 9.21 µM
Tmax at 30 day (Multiple dose PK/TK, rat; [12]): 1 h
AUC (Multiple dose PK/TK, rat; [13]): 23900 ng·h/mL and 189 µM·h
Cmax (Multiple dose PK/TK, rat; [13]): 1670 ng/mL and 13.2 µM
Tmax (Multiple dose PK/TK, rat; [13]): 1 to 6 h
AUC (Multiple dose PK/TK, rat; [14]): 29300 ng·h/mL and 232 µM·h
Cmax (Multiple dose PK/TK, rat; [14]): 2780 ng/mL and 22 µM
Tmax (Multiple dose PK/TK, rat; [14]): 1 h
AUC/dose (Multiple dose PK/TK, rat; rat 1F+1M, DMR4, 2.16 mg/kg (10 μmol/kg), day 1): 0.323-0.398
AUC/dose (Multiple dose PK/TK, rat; rat 1F+1M, DMR4, 2.16 mg/kg (10 μmol/kg), day 7): 0.277-0.396
AUC/dose (Multiple dose PK/TK, rat; rat 4F, 0612AR, 2.16 mg/kg (10 μmol/kg), day 1): 0.725 ± 0.068
AUC/dose (Multiple dose PK/TK, rat; rat 4F, 0612AR, 2.16 mg/kg (10 μmol/kg), day 30): 0.679 ± 0.134
AUC/dose (Multiple dose PK/TK, rat; rat 4F, 0612AR, 15.1 mg/kg (70 μmol/kg), day 1): 0.919 ± 0.071
AUC/dose (Multiple dose PK/TK, rat; rat 4F, 0612AR, 15.1 mg/kg (70 μmol/kg), day 30): 1.09 ± 0.13
AUC/dose (Multiple dose PK/TK, rat; rat 4F, 0612AR, 64.9 mg/kg (300 μmol/kg), day 1): 1.07 ± 0.10
AUC/dose (Multiple dose PK/TK, rat; rat 4F, 0612AR, 64.9 mg/kg (300 μmol/kg), day 30): 1.11 ± 0.14
AUC/dose (Multiple dose PK/TK, rat; rat 4M, 062AR, 2.16 mg/kg (10 μmol/kg), day 30): 0.326 ± 0.084
AUC/dose (Multiple dose PK/TK, rat; rat 4M, 0612AR, 2.16 mg/kg (10 μmol/kg), day 1): 0.418 ± 0.062
AUC/dose (Multiple dose PK/TK, rat; rat 4M, 0612AR, 15.1 mg/kg (70 μmol/kg), day 1): 0.479 ± 0.037
AUC/dose (Multiple dose PK/TK, rat; rat 4M, 0612AR, 15.1 mg/kg (70 μmol/kg), day 30): 0.637 ± 0.043
AUC/dose (Multiple dose PK/TK, rat; rat 4M, 0612AR, 64.9 mg/kg (300 μmol/kg), day 1): 0.630 ± 0.083
AUC/dose (Multiple dose PK/TK, rat; rat 4M, 0612AR, 64.9 mg/kg (300 μmol/kg), day 30): 0.773 ± 0.057
time of administration prior to object sampling at which object recognition index was still significantly increased (mice): ≤ 48 h
functional selectivity 5-HT3A>α7 (5-HT3A): 14 fold
metabolites in human hepatocyte incubations (human hepatocytes): no metabolites were detected
